# pEC50, pIC50: −log10 of the molar value.
# Assays:
# Format in all cases: cell-based
# [1] = test system: Wnt activity (Wnt-responsive Sp5 promoter-luciferase reporter in SW480 cells); experiment: Wnt activity screening assay: Sp5-Luc reporter gene in SW480 colon carcinoma cells; conditions: Homo sapiens
# Summary of the method: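 IC50 values come from variable-slope four-parameter fits of luciferase signal normalized to DMSO wells. Stable Sp5-Luc reporter SW480 colon carcinoma cells were exposed to compounds in a 3-fold dilution series (source plates from 10 mM stock) for forty-two hours at 37 °C.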
# [2] = test system: primary human mesenchymal stem cells (hMSCs); experiment: Chondrogenesis induction in primary human mesenchymal stem cells (nodule imaging, Rhodamine B/Nile Red); conditions: 144 h, 6 days; for EC (100% TGF-beta3 activity): concentration required to induce chondrogenesis equivalent to TGF-β3 positive control, read-out: Conc (nM) of 100% TGF-β3 activity; for Emax: relative to TGF-β3 (10 ng/mL) positive control, read-out: Max. Activity as % TGF-β3 activity
# Protocol: The above synthesized compounds were screened using primary human mesenchymal stem cells (hMSCs) to determine their ability to induce chondrogenesis (process by which cartilage is developed).
# Primary human mesenchymal stem cells (hMSCs) were purchased from Lonza (Walkersville, Md.) and expanded in Mesenchymal Stem Cell Growth Media (Lonza). Cells between passage 3 and 6 were used for the experiments.
# Each compound was dissolved in DMSO as a 10 mM stock and used to prepare compound source plates. Serial dilution (1:3, 6-point dose-response curves from 2700 nM to 10 nM) and compound transfer was performed using the ECHO 550 (Labcyte, Sunnyvale, Calif.) into 96-well clear bottom assay plates (Greiner Bio-One) with appropriate DMSO backfill for a final DMSO concentration of 0.03%. hMSCs were plated at 20,000 cells/well in 250 μL/well Incomplete Chondrogenic Induction Medium (Lonza; DMEM, dexamethasone, ascorbate, insulin-transferrin-selenium [ITS supplement], gentamycin-amphotericin [GA-1000], sodium pyruvate, proline and L-glutamine). TGF-β3 (10 ng/mL) was used as a positive control for differentiation while negative control wells were treated with 75 nL DMSO for normalization and calculating EC50 values. Cells were incubated at 37° C. and 5% CO2 for 6 days. To image chondrogenic nodules, the cells were fixed using 4% formaldehyde (Electron Microscopy Sciences), and stained with 2 μg/mL Rhodamine B (Sigma-Aldrich) and 20 μM Nile Red (Sigma-Aldrich) [Johnson K., et. al, A Stem Cell-Based Approach to Cartilage Repair, Science, (2012), 336(6082), 717-721]. The nodules imaged (4 images per well at 4× magnification) by excitation at 531 nm and emission at 625 nm and quantified using the CellInsight CX5 (Thermo Scientific). Number of nodules in each well was normalized to the average of 3 DMSO treated wells on the same plate using Excel (Microsoft Inc.). The normalized averages (fold change over DMSO) of 3 replicate wells for each compound concentration were calculated. Due to solubility limitations of some of the compounds, curve fitting was incomplete leading to inaccurate EC50 determinations.
# Using TGF-03 as a positive control, the concentration of test compounds required to induce equivalent levels of chondrogenesis is reported. In addition, the maximum activity of each compound and the respective dose that each compound reached maximum chondrogenesis activity is reported.
# [3] = test system: primary human fibroblasts derived from IPF patients (LL29 cells); experiment: Inhibition of fibrotic process: αSMA staining in TGF-β1-treated primary human fibroblasts from IPF patients (LL29 cells); conditions: Fibroblast, 96 h, LL29 cells treated with TGF-β1 (20 ng/mL), 4 days, 11-point dose-response from 10 μM to 1.87 nM, read-out: Inhibition of fibrosis EC50
# Summary of the method: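 LL29 IPF lung fibroblasts in F12 with 1% FBS, compound (11-point, 10 μM to 1.87 nM, 0.1% DMSO) plus TGF-β1 20 ng/mL for 4 days at 37° C. αSMA-positive % of SYTOX-negative cells by immunofluorescence imaging, normalized to TGF-β1 wells; EC50 from non-linear regression of triplicates.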
# ARPE-19 cells = experiment: Transdifferentiation of ARPE-19 cells into eye neuronal cells [photoreceptors] (PAX6 staining); conditions: Homo sapiens, 40 hours, normalized to DMSO
# Protocol: The above synthesized compounds were screened using ARPE-19 cells [a spontaneously arising retinal pigment epithelia (RPE) cell line] to determine their ability to transdifferentiate ARPE-19 into eye neuronal cells [photoreceptors].
# ARPE-19 cells are cultured in standard culture medium containing Dulbecco's Modified Eagle's Medium and Ham's F12 Nutrient Mixture (DMEM/F12) mix (1:1)+GlutaMax with 1% penicillin-Streptomycin and 10% FBS (Fetal Bovine Serum). Cells are incubated at 37° C. with 5% CO2. Cells are trypsinized and plated onto 384-well pre-spotted plate at a density of 3000 cells/well in 50 uL of media. Plating media: DMEM/F12 (1:1)+3% charcoal filtered-FBS+GlutaMax+1% pen/Strep. Cells are incubated at 37° C. with 5% CO2. At 40 hours, cells were fixed for 15 min with 10% Buffered Formalin. Cells were then washed 3 times with PBS for 5 min each, permeablize using 0.3% Triton X-100 in 1×PBS for 30 min, block for 1 hr with 2% BSA in 1×PBS with 0.1% Triton X-100. The primary antibody (1:100 PAX6 Santa Cruz Biotech; sc-81649) was diluted and 10 μL/well was added to the cells. The cells were incubated overnight at 4° C. […] Readings were normalized to DMSO only treated cells, and normalized activities were utilized for EC50 calculations using the dose-response log (activator) vs. response-variable slope (four parameters) nonlinear regression feature available in GraphPad Prism 5.0 or 6.0.
pIC50 [1],Structure (SMILES),EC (100% TGF-beta3 activity) [2],Emax [2],pEC50 [3],pEC50 (ARPE-19 cells)
7.15,"Cn1cc(-c2cc3c(-c4nc5c(-c6cccc(F)c6)cncc5[nH]4)n[nH]c3cn2)cn1 [Compound 888, 3-(7-(3-Fluorophenyl)-3H-imidazo[4,5-c]pyridin-2-yl)-5-(1-methyl-1H-pyrazol-4-yl)-1H-pyrazolo[3,4-c]pyridine]",71 nM,100%,≥ 8.05,–
8.13,"CC(C)CC(=O)Nc1cncc(-c2cc3c(-c4nc5c(-c6ccc(F)s6)cncc5[nH]4)n[nH]c3cn2)c1 [Compound 314, N-(5-(3-(7-(5-Fluorothiophen-2-yl)-3H-imidazo[4,5-c]pyridin-2-yl)-1H-pyrazolo[3,4-c]pyridin-5-yl)pyridin-3-yl)-3-methylbutanamide]",180 nM,900%,6.76,–
7.62,"CCCC(=O)Nc1cncc(-c2cc3c(-c4nc5c(-c6cc(F)cc(CNS(C)(=O)=O)c6)cncc5[nH]4)n[nH]c3cn2)c1 [Compound 407, N-(5-(3-(7-(3-Fluoro-5-(methylsulfonamidomethyl)phenyl)-3H-imidazo[4,5-c]pyridin-2-yl)-1H-pyrazolo[3,4-c]pyridin-5-yl)pyridin-3-yl)butyramide]",79.2 nM,30%,< 5.00,–
8.43,"CC(C)(C)C(=O)Nc1cncc(-c2cc3c(-c4nc5c(-c6ccc(F)s6)cncc5[nH]4)n[nH]c3cn2)c1 [Compound 320, N-(5-(3-(7-(5-Fluorothiophen-2-yl)-3H-imidazo[4,5-c]pyridin-2-yl)-1H-pyrazolo[3,4-c]pyridin-5-yl)pyridin-3-yl)pivalamide]",41 nM,–,6.99,–
6.99,"NC1CN(c2cncc(-c3cc4c(-c5nc6c(-c7cccc(F)c7)cncc6[nH]5)n[nH]c4cn3)n2)C1 [Compound 890, 1-(6-(3-(7-(3-Fluorophenyl)-3H-imidazo[4,5-c]pyridin-2-yl)-1H-pyrazolo[3,4-c]pyridin-5-yl)pyrazin-2-yl)azetidin-3-amine]",–,–,7.06,8.05
6.36,"CN(C)CCOc1cncc(-c2cc3c(-c4nc5c(-c6cccc(F)c6)cncc5[nH]4)n[nH]c3cn2)c1 [Compound 895, 2-((5-(3-(7-(3-Fluorophenyl)-3H-imidazo[4,5-c]pyridin-2-yl)-1H-pyrazolo[3,4-c]pyridin-5-yl)pyridin-3-yl)oxy)-N,N-dimethylethan-1-amine]",–,–,≤ 5.00,6.79
7.48,"CCCC(=O)Nc1cncc(-c2cc3c(-c4nc5c(-c6ccsc6)cncc5[nH]4)n[nH]c3cn2)c1 [Compound 251, N-(5-(3-(7-(Thiophen-3-yl)-3H-imidazo[4,5-c]pyridin-2-yl)-1H-pyrazolo[3,4-c]pyridin-5-yl)pyridin-3-yl)butyramide]",42 nM,–,≥ 8.05,–
7.84,"CCNCc1cncc(-c2cc3c(-c4nc5c(-c6ccc(F)cc6)cncc5[nH]4)n[nH]c3cn2)c1 [Compound 32, N-((5-(3-(7-(4-Fluorophenyl)-3H-imidazo[4,5-c]pyridin-2-yl)-1H-pyrazolo[3,4-c]pyridin-5-yl)pyridin-3-yl)methyl)ethanamine]",110 nM,–,≥ 8.05,–
8.17,"Cc1ccc(-c2cncc3[nH]c(-c4n[nH]c5cnc(-c6cncc(NC(=O)C7CCC7)c6)cc45)nc23)s1 [Compound 358, N-(5-(3-(7-(5-Methylthiophen-2-yl)-3H-imidazo[4,5-c]pyridin-2-yl)-1H-pyrazolo[3,4-c]pyridin-5-yl)pyridin-3-yl)cyclobutanecarboxamide]",231 nM,100%,7.72,–
7.51,"COc1cncc(-c2cc3c(-c4nc5c(-c6cccc(F)c6)cncc5[nH]4)n[nH]c3cn2)c1 [Compound 896, 3-(7-(3-Fluorophenyl)-3H-imidazo[4,5-c]pyridin-2-yl)-5-(5-methoxypyridin-3-yl)-1H-pyrazolo[3,4-c]pyridine]",140 nM,300%,≥ 8.05,–
7.87,"CCNCc1cncc(-c2cc3c(-c4nc5c(-c6cccc(F)c6)cncc5[nH]4)n[nH]c3cn2)c1 [Compound 6, N-((5-(3-(7-(3-Fluorophenyl)-3H-imidazo[4,5-c]pyridin-2-yl)-1H-pyrazolo[3,4-c]pyridin-5-yl)pyridin-3-yl)methyl)ethanamine]",136 nM,300%,6.29,–
7.51,"CCC(=O)Nc1cncc(-c2cc3c(-c4nc5c(-c6cccs6)cncc5[nH]4)n[nH]c3cn2)c1 [Compound 287, N-(5-(3-(7-(Thiophen-2-yl)-3H-imidazo[4,5-c]pyridin-2-yl)-1H-pyrazolo[3,4-c]pyridin-5-yl)pyridin-3-yl)propionamide]",84.2 nM,300%,6.50,–
7.35,"FC1(F)CCN(Cc2cncc(-c3cc4c(-c5nc6c(N7CCCCC7)cncc6[nH]5)n[nH]c4cn3)c2)C1 [Compound 181, 5-(5-((3,3-Difluoropyrrolidin-1-yl)methyl)pyridin-3-yl)-3-(7-(piperidin-1-yl)-3H-imidazo[4,5-c]pyridin-2-yl)-1H-pyrazolo[3,4-c]pyridine]",100 nM,10%,≥ 8.05,–
8.24,"Cc1ccc(-c2cncc3[nH]c(-c4n[nH]c5cnc(-c6cncc(N)c6)cc45)nc23)s1 [Compound 341, 5-(3-(7-(5-Methylthiophen-2-yl)-3H-imidazo[4,5-c]pyridin-2-yl)-1H-pyrazolo[3,4-c]pyridin-5-yl)pyridin-3-amine]",162 nM,100%,≥ 8.05,–
